Experimental data: US6784201B2, “Benzothiepines having activity as inhibitors of ileal bile acid transport and taurocholate uptake” (G.D. Searle & Company, priority 1994, dated 2004)
pIC50: −log10 of the molar value.

Key:
human IBAT = target: T1, human IBAT (Homo sapiens, UniProt Q12908); assay: In vitro assay of IBAT-mediated uptake of [14C]-taurocholate (TC) in H14 cells; assay type: cell-based; settings: In Vitro Taurocholate Uptake, Table 10; read-out: Human TC IC50
T1 construct: expressed in transfected cells; host or cells: Baby hamster kidney (BHK) cells, clone H14
T1 sequence (Q12908 1-348): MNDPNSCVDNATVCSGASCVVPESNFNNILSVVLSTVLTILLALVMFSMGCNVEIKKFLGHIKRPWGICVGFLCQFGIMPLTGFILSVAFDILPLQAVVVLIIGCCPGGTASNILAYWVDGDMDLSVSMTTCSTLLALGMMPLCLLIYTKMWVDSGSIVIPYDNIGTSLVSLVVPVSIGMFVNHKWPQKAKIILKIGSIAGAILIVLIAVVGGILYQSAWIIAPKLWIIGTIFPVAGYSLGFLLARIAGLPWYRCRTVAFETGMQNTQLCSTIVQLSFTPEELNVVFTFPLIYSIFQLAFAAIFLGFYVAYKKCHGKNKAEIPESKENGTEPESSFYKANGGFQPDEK
Summary of the method: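 BHK cells stably expressing human IBAT (H14) were incubated 2 h at 37° C with compound and 3 μM final [14C]-taurocholate in DMEM (4.5 g/L glucose) plus 0.2% fatty acid-free BSA. After cold PBS washes, cell-associated radioactivity was measured by scintillation counting.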

fecal bile acid (FBA) = assay: Rat gavage assay (fecal bile acid increase); assay type: in vivo
Method: Male Wister rats (275-300 g) are administered IBAT inhibitors using an oral gavage procedure. Drug or vehicle (0.2% Tween 80 in water) is administered once a day (9:00-10:0 a.m.) for 4 days at varying dosages in a final volume of 2 mL per kilogram of body weight. Total fecal samples are collected during the final 48 hours of the treatment period and analyzed for bile acid content using an enzymatic assay as described below. Compound efficacy is determined by comparison of the increase in fecal bile acid (FBA) concentration in treated rats to the mean FBA concentration of rats in the vehicle group.
Measurement of Fecal Bile Acid Concentration (FBA)
Total fecal output from individually housed hamsters was collected for 24 or 48 hours, dried under a stream of nitrogen, pulverized and weighed. Approximately 0.1 gram was weighed out and extracted into an organic solvent (butanol/water). Following separation and drying, the residue was dissolved in methanol and the amount of bile acid present was measured enzymatically using the 3α-hydroxysteroid steroid dehydrogenase reaction with bile acids to reduce NAD. (Reference: Mashige, F., et al. (1981) Clin. Chem. 27, 1352).

pIC50 (human IBAT) | Structure (SMILES) | Delta (micromoles fecal bile acid per day) (fecal bile acid (FBA); dose 2 mg/kg/day) | Delta (micromoles fecal bile acid per day) (fecal bile acid (FBA); dose .016 mg/kg/day) | Delta (micromoles fecal bile acid per day) (fecal bile acid (FBA); dose .08 mg/kg/day) | Delta (micromoles fecal bile acid per day) (fecal bile acid (FBA); dose .4 mg/kg/day) | Delta (micromoles fecal bile acid per day) (fecal bile acid (FBA); dose 5 mg/kg/day) | Delta (micromoles fecal bile acid per day) (fecal bile acid (FBA); dose .04 mg/kg/day) | Delta (micromoles fecal bile acid per day) (fecal bile acid (FBA); dose .2 mg/kg/day)
8.70 | CCCCC1(CCCC)CS(=O)(=O)c2ccc(N(C)C)cc2[C@@H](c2ccc(OCCCC[n+]3cccc(O)c3)cc2)[C@H]1O.CS(=O)(=O)[O-] [Example 1411, (4R-cis)-1-[4-[4-[3,3-Dibutyl-7-(dimethylamino)-2,3,4,5-tetrahydro-4-hydroxy-1,1-dioxido-1-benzothiepin-5-yl]phenoxy]butyl]-3-hydroxypyridinium, methanesulfonate (Salt)] | 63.4 micromoles fecal bile acid per day | 22.3 micromoles fecal bile acid per day | 33 micromoles fecal bile acid per day | 54.1 micromoles fecal bile acid per day |  |  | 
7.82 | CCCCC1(CCCC)CS(=O)(=O)c2ccc(N(C)C)cc2[C@@H](c2ccc(OCCCCCN(CC)CC)cc2)[C@H]1O [Example 1414, (4R-cis)-3,3-Dibutyl-5-[4-[[5-(diethylamino)pentyl]oxy]phenyl]-7-(dimethylamino)-2,3,4,5-tetrahydro-1-benzothiepin-4-ol 1,1-dioxide] | 41.5 micromoles fecal bile acid per day | 3.8 micromoles fecal bile acid per day | 29 micromoles fecal bile acid per day | 33.7 micromoles fecal bile acid per day | 45.2 micromoles fecal bile acid per day | 14.3 micromoles fecal bile acid per day | 39.5 micromoles fecal bile acid per day
8.70 | CCCCC1(CCCC)CS(=O)(=O)c2ccc(N(C)C)cc2[C@@H](c2ccc(OCCCCCN(CC(=O)O)CC(=O)O)cc2)[C@H]1O [Example 1415, (4R-cis)-N-(Carboxymethyl)-N-[5-[4-[3,3-dibutyl-7-(dimethylamino)-2,3,4,5-tetrahydro-4-hydroxy-1,1-dioxido-1-benzothiepin-5-yl]phenoxy]pentyl]glycine] | 48.9 micromoles fecal bile acid per day | 12.7 micromoles fecal bile acid per day | 27.1 micromoles fecal bile acid per day | 25.7 micromoles fecal bile acid per day | 59.9 micromoles fecal bile acid per day | 23.9 micromoles fecal bile acid per day | 48.1 micromoles fecal bile acid per day
7.85 | CCCCC1(CCCC)CS(=O)(=O)c2ccc(N(C)C)cc2[C@@H](c2ccc(OCCCCCN(CCN(CC)CC)CCN(CC)CC)cc2)[C@H]1O [Example 1416, (4R-cis)-5-[4-[[5-[bis[2-(Diethylamino)ethyl]amino]pentyl]oxy]phenyl]-3,3-dibutyl-7-(dimethylamino)-2,3,4,5-tetrahydro-1-benzothiepin-4-ol 1,1-dioxide] | 46.1 micromoles fecal bile acid per day | −7.8 micromoles fecal bile acid per day | 25 micromoles fecal bile acid per day | 21.9 micromoles fecal bile acid per day |  |  | 
8.70 | CCCCC1(CCCC)CS(=O)(=O)c2ccc(N(C)C)cc2[C@@H](c2ccc(OCCCCCNCCc3cnc[nH]3)cc2)[C@H]1O [Example 1417, (4R-cis)-3,3-Dibutyl-7-(dimethylamino)-2,3,4,5-tetrahydro-5-[4-[[5-[[2-(1H-imidazol-4-yl)ethyl]amino]pentyl]oxy]phenyl]-1-benzothiepin-4-ol 1,1-dioxide] | 51.4 micromoles fecal bile acid per day | 29.3 micromoles fecal bile acid per day | 39.6 micromoles fecal bile acid per day | 42 micromoles fecal bile acid per day |  |  | 
